Article PMC7226027, “Phosphonic Acid Analogs of Fluorophenylalanines as Inhibitors of Human and Porcine Aminopeptidases N: Validation of the Importance of the Substitution of the Aromatic Ring” (Biomolecules, 2020)
Read-outs that look alike come from different tables or passages of the source.

Experiments:
Assay type in all cases: biochemical
[1] = molecular target: T1, pAPN (porcine kidney alanine aminopeptidase, EC 3.4.11.2) (Sus scrofa, UniProt P15145); experiment: fluorogenic assay, Ala-AMC hydrolysis; Ki by Lineweaver-Burk, Dixon, Cheng-Prusoff; settings: for pAPN Ki (μM): unreliable (value above highest stated concentration, 1 mM)
T1 construct: gene ANPEP; commercial enzyme from porcine kidney (Sigma Aldrich), native purification, lyophilized powder
T1 sequence (P15145 2-963): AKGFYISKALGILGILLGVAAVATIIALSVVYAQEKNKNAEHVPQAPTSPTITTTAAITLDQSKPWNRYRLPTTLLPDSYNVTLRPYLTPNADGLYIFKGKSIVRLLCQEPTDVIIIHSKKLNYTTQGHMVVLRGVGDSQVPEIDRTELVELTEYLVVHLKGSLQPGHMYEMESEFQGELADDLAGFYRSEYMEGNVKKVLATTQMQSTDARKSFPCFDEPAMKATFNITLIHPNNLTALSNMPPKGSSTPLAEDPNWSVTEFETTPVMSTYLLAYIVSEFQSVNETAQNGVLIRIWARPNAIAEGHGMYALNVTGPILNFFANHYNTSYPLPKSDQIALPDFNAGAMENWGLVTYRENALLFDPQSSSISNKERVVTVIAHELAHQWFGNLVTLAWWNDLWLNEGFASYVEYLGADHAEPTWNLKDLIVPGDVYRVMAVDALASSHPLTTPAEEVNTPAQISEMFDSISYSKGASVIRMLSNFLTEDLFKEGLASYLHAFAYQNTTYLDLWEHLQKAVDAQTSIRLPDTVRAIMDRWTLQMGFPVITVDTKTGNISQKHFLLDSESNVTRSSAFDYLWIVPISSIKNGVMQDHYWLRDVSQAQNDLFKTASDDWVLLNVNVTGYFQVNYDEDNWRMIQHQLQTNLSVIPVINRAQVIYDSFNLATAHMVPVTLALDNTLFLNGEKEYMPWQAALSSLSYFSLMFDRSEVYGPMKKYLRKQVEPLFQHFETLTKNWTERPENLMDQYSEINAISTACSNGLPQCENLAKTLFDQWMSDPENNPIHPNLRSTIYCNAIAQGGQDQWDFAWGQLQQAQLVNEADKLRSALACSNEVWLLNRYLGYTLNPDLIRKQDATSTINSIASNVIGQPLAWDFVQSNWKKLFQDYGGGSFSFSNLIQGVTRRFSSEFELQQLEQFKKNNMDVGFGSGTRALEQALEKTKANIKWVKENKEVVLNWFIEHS
Source text: fluorogenic assay, Ala-AMC hydrolysis; Ki by Lineweaver-Burk, Dixon, Cheng-Prusoff on pAPN (porcine kidney alanine aminopeptidase, EC 3.4.11.2)

[2] = molecular target: T2, hAPN (recombinant human alanine aminopeptidase, EC 3.4.11.2) (Homo sapiens, UniProt P15144); experiment: as above
T2 construct: gene ANPEP; commercial recombinant enzyme (R&D Systems), lyophilized powder
T2 sequence (P15144 33-967 limits assumed): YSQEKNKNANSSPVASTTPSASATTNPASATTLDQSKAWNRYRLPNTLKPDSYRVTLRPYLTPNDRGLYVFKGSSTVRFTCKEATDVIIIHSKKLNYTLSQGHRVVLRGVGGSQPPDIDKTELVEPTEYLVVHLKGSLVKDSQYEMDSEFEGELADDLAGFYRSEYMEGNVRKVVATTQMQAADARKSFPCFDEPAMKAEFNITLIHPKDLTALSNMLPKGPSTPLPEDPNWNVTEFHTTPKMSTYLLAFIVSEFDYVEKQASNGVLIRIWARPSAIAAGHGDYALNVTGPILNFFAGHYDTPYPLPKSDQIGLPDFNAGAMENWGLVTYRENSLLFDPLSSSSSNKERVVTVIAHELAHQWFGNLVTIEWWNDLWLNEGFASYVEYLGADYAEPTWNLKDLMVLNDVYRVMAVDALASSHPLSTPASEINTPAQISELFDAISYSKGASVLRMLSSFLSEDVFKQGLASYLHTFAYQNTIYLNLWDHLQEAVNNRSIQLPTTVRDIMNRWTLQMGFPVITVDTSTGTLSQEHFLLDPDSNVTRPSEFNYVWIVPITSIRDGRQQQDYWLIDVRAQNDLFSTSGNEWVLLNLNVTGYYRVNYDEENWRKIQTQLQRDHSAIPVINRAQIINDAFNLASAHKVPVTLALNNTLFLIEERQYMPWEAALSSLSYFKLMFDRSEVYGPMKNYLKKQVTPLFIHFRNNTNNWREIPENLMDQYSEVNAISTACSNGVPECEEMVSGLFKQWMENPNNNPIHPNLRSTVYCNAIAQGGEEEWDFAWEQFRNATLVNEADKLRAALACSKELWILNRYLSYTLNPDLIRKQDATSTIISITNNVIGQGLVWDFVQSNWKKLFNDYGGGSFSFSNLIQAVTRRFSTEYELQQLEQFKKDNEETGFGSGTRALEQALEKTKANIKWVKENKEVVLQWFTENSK
Source text: fluorogenic assay, Ala-AMC hydrolysis; Ki by Lineweaver-Burk, Dixon, Cheng-Prusoff on hAPN (recombinant human alanine aminopeptidase, EC 3.4.11.2)

[3] = molecular target: T1, pAPN (porcine kidney alanine aminopeptidase, EC 3.4.11.2); experiment: fluorogenic assay (AMC release); settings: 50 mM Tris-HCl pH 7.20
[4] = molecular target: T2, hAPN (recombinant human alanine aminopeptidase, EC 3.4.11.2); experiment: fluorogenic assay (AMC release); settings: 50 mM Tris-HCl pH 7.00
[5] = racemate (hydrochloride), 80 µM Ala-AMC, 50 mM Tris-HCl pH 7.20, 37 °C
[6] = read-out: Inactive (no inhibition up to 1 mM)
[7] = racemate (hydrochloride), 80 µM Ala-AMC, 50 mM Tris-HCl pH 7.20, 37 °C, 0.66 nM enzyme, 30 min enzyme preincubation in buffer

| SMILES | Ki [1] | Ki ([2]; read-out: hAPN Ki) | also measured |
| --- | --- | --- | --- |
| NC(Cc1ccccc1F)P(=O)(O)O (racemic) [1b, 1-Amino-2-(2-fluorophenyl)ethylphosphonic Acid] | 256 ± 19 µM | – | Ki [2]: 18.1 ± 3.7 µM |
| NC(Cc1cccc(F)c1)P(=O)(O)O (racemic) [1c, 1-Amino-2-(3-fluorophenyl)ethylphosphonic Acid] | 26.4 ± 2 µM | – | Ki [2]: 3.39 ± 0.71 µM |
| NC(Cc1ccc(F)cc1)P(=O)(O)O (racemic) [1d, 1-Amino-2-(4-fluorophenyl)ethylphosphonic Acid] | 41.4 ± 2.5 µM | – | Ki [2]: 4.86 ± 1.18 µM |
| NC(Cc1ccc(F)cc1F)P(=O)(O)O (racemic) [1e, 1-Amino-2-(2,4-difluorophenyl)ethylphosphonic Acid] | 95.6 ± 9.6 µM | 13.5 ± 2.7 µM | – |
| NC(Cc1cc(F)ccc1F)P(=O)(O)O (racemic) [1f, 1-Amino-2-(2,5-difluorophenyl)ethylphosphonic Acid] | 86.3 ± 8.2 µM | 25.9 ± 5 µM | – |
| NC(Cc1c(F)cccc1F)P(=O)(O)O (racemic) [1g, 1-Amino-2-(2,6-difluorophenyl)ethylphosphonic Acid] | 725 ± 121 µM | 327 ± 98 µM | – |
| NC(Cc1ccc(F)c(F)c1)P(=O)(O)O (racemic) [1h, 1-Amino-2-(3,4-difluorophenyl)ethylphosphonic Acid] | 15.7 ± 2.5 µM | 1.71 ± 0.52 µM | – |
| NC(Cc1cc(F)cc(F)c1)P(=O)(O)O (racemic) [1i, 1-Amino-2-(3,5-difluorophenyl)ethylphosphonic Acid] | 8.09 ± 1.1 µM | 0.529 ± 0.088 µM | – |
| NC(Cc1cc(F)c(F)cc1F)P(=O)(O)O (racemic) [1j, 1-Amino-2-(2,4,5-trifluorophenyl)ethylphosphonic Acid] | 78.5 ± 3.9 µM | 15 ± 2.2 µM | – |
| NC(Cc1c(F)cc(F)cc1F)P(=O)(O)O (racemic) [1k, 1-Amino-2-(2,4,6-trifluorophenyl)ethylphosphonic Acid] | 969 ± 158 µM | 225 ± 47 µM | – |
| NC(Cc1cc(F)c(F)c(F)c1)P(=O)(O)O (racemic) [1l, 1-Amino-2-(3,4,5-trifluorophenyl)ethylphosphonic Acid] | 7.1 ± 0.93 µM | 0.793 ± 0.138 µM | – |
| NC(Cc1c(F)c(F)c(F)c(F)c1F)P(=O)(O)O (racemic) [1m, 1-Amino-2-(2,3,4,5,6-pentafluorophenyl)ethylphosphonic Acid] | 808 ± 132 µM | 139 ± 71 µM | – |
| NC(Cc1cccc(Cl)c1F)P(=O)(O)O (racemic) [1n, 1-Amino-2-(3-chloro-2-fluorophenyl)ethylphosphonic Acid] | 85.1 ± 9.1 µM | 18.5 ± 7.1 µM | – |
| NC(Cc1ccc(Cl)cc1F)P(=O)(O)O (racemic) [1o, 1-Amino-2-(4-chloro-2-fluorophenyl)ethylphosphonic Acid] | 160 ± 11 µM | 17.8 ± 2.09 µM | – |
| NC(Cc1cc(Cl)ccc1F)P(=O)(O)O (racemic) [1p, 1-Amino-2-(5-chloro-2-fluorophenyl)ethylphosphonic Acid] | 47.2 ± 1.4 µM | 4.3 ± 0.44 µM | – |
| NC(Cc1c(F)cccc1Cl)P(=O)(O)O (racemic) [1r, 1-Amino-2-(2-chloro-6-fluorophenyl)ethylphosphonic Acid] | – | 360 ± 125 µM | pAPN Ki (μM) [1, 5]: 2557 ± 729 µM |
| NC(Cc1ccc(Cl)c(F)c1)P(=O)(O)O (racemic) [1s, 1-Amino-2-(4-chloro-3-fluorophenyl)ethylphosphonic Acid] | 14.8 ± 0.9 µM | 1.01 ± 0.16 µM | – |
| NC(Cc1ccc(F)c(Cl)c1)P(=O)(O)O (racemic) [1t, 1-Amino-2-(3-chloro-4-fluorophenyl)ethylphosphonic Acid] | 6.93 ± 0.78 µM | 0.542 ± 0.152 µM | – |
| NC(Cc1ccc(F)cc1Cl)P(=O)(O)O (racemic) [1u, 1-Amino-2-(2-chloro-4-fluorophenyl)ethylphosphonic Acid] | 106 ± 12 µM | 29.1 ± 10.3 µM | – |
| NC(Cc1ccccc1C(F)(F)F)P(=O)(O)O (racemic) [1v, 1-Amino-2-(2-trifluoromethylphenyl)ethylphosphonic Acid] | – | – | pAPN Ki (μM) [1, 5]: 2335 ± 617 µM; Ki [2, 6]: > 1000 µM |
| NC(Cc1cccc(C(F)(F)F)c1)P(=O)(O)O (racemic) [1w, 1-Amino-2-(3-trifluoromethylphenyl)ethylphosphonic Acid] | 66 ± 7.3 µM | 2.53 ± 0.4 µM | – |
| NC(Cc1ccc(C(F)(F)F)cc1)P(=O)(O)O (racemic) [1x, 1-Amino-2-(4-trifluoromethylphenyl)ethylphosphonic Acid] | 257 ± 27 µM | 24.9 ± 3 µM | – |
| NC(Cc1cc(F)ccc1C(F)(F)F)P(=O)(O)O (racemic) [1y, 1-Amino-2-(5-fluoro-2-trifluoromethylphenyl)ethylphosphonic Acid] | – | – | Inactive (no inhibition up to 1 mM) [1, 7]: > 1 mM; Ki [2, 6]: > 1000 µM |
| NC(Cc1ccc(F)c(C(F)(F)F)c1)P(=O)(O)O (racemic) [1z, 1-Amino-2-(4-fluoro-3-trifluoromethylphenyl)ethylphosphonic Acid] | 67.7 ± 5.6 µM | 3.55 ± 0.43 µM | – |
| NC(CC(F)(F)F)P(=O)(O)O (racemic) [compound 8, (1-Amino-3,3,3-trifluoropropyl)phosphonic acid] | 755 ± 230 µM | – | Ki [2]: 84.7 ± 15.8 µM |
| NC(Cc1ccccc1)P(=O)(O)O (stereo not drawn) [1a, 1-Amino-2-phenylethylphosphonic Acid] | – | – | Ki [1, 7]: 73.3 ± 7.6 µM; Ki ([2]; racemate (hydrochloride), 50 µM Ala-AMC, 50 mM Tris-HCl pH 7.00, 37 °C, 0.66 nM enzyme, 30 min enzyme preincubation in buffer, read-out: hAPN Ki): 15.5 ± 1.7 µM |
| Cc1cc(=O)oc2cc(NC(=O)[C@H](C)N)ccc12 [Ala-AMC, L-alanine-4-methylcoumaryl-7-amide] | – | – | Km [3]: 90 µM; Km [4]: 73 µM |
